{
  "source": "patent US8962838B2",
  "about": "“Platinum complexes and their use” (Westfaelische Wilhelms-Universitaet Muenster, priority 2011, dated 2015)",
  "tested_on": "HeLa S3 cells",
  "experiment": "Cytotoxicity experiments, percentage of viable cells by Casy-1 cell counter",
  "assay_type": "cell-based",
  "settings": "24 h incubation",
  "description": "Cytotoxicity Experiments: HeLa S3 cells were seeded into 12-well tissue culture dishes in a density of approximately 80000 cells per well. The logarithmically growing cells were cultured for 24 h in Ham's F12 nutrient mixture containing 10% fetal bovine serum, 100 U penicillin per mL and […] streptomycin per mL and incubated at 37° C. with 5% CO2 in air and 100% humidity until the Pt-complexes were added. The cytotoxicity of the Pt-complexes was elucidated by quantifying the percentage of viable cells. Cell viability was measured after 24 h Pt-complex incubation and trypsinizing of cells, by an automatic cell counter (Casy-1, Roche Innovatis AG). These measurements are based on non-invasive (dye-free) electrical current exclusion with signal evaluation via pulse area analysis and allow the structural integrity of cells (membrane integrity and cell death).",
  "data": [
    {"compound": "C[S+](C)[O-]", "note": "[DMSO]", "values": [
      {"measurement": "DMSO concentration at which no toxic effect was detectable", "result": "Below 1.8%"},
      {"measurement": "cytotoxicity", "setting": "2.5% DMSO", "result": "a high amount of viable Hela-S3 cells but still some dead cells were detected"},
      {"measurement": "cytotoxicity", "setting": "DMSO concentration from 10% down to 5%", "result": "extremely toxic"}
    ]}
  ]
}
